In US10028961B2, “Therapeutically active compounds and their methods of use” (AGIOS PHARMACEUTICALS, INC., priority 2013, dated 2018):
Read-outs that look alike come from different tables or passages of the source.

How the values were obtained:
[1] = target: IDH1 wt/IDH1 R132H heterodimer (Homo sapiens (Human), UniProt O75874, R132H); assay: In vitro assay for IDH1m R132H inhibitors, IDH1 wt/IDH1 R132H heterodimer, NADPH depletion (diaphorase/resazurin); type: biochemical
In short: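 Read-out is NADPH left after α-KG reduction to 2-HG, measured via resorufin fluorescence after 5 min diaphorase/resazurin step at 25° C. Enzyme is sf9-expressed IDH1wt-his/IDH1R132H-flag heterodimer, pre-incubated 1 hr at room temperature with compound and cofactor. IC50s from DMSO stocks diluted 1:50.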

[2] = target: IDH1-R132H homodimer enzyme (Homo sapiens (Human), UniProt O75874, R132H); assay: In vitro assay IDH1-R132H homodimer, NADPH depletion assay with NADPH/NADP preincubation; type: biochemical; conditions: 5 μM NADPH and 37.5 μM NADP
Experimental: The following describes the experimental procedures that can be used to obtain data on columns 3 and 5 of Table 5.
A test compound is prepared as 10 mM stock in DMSO and diluted to 50× final concentration in DMSO, for a 50 μl reaction mixture. IDH enzyme activity converting alpha-ketoglutarate to 2-hydroxyglutaric acid is measured using a NADPH depletion assay. In the assay the remaining cofactor is measured at the end of the reaction with the addition of a catalytic excess of diaphorase and resazurin, to generate a fluorescent signal in proportion to the amount of NADPH remaining. […] The reaction is started with the addition of 10 μl of Substrate Mix ([…], 5 mM alpha-ketoglutarate, in Assay Buffer) and the mixture is incubated for 60 minutes at room temperature.

[3] = target: IDH2 R140Q (Homo sapiens (Human), UniProt P48735, R140Q); assay: In vitro assay for IDH2m R140Q inhibitors, cofactor depletion assay; type: biochemical; conditions: IDH2 R140Q enzyme
In short: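 Remaining cofactor measured fluorimetrically: diaphorase/resazurin Stop Mix […], halting the reaction. Before that, mutant enzyme and compound sat 1 h at RT, then substrate mix (4 μM NADPH, 1.6 mM α-KG) was added for 16 h at RT.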

[4] = system: U87MG pLVX-IDH2 R140Q-neo cells; assay: U87MG pLVX-IDH2 R140Q-neo cell based assay, 2-HG by LC-MS; conditions: Homo sapiens, U-87 MG
[5] = system: Neurosphere cells (TS603); assay: Cellular assay for IDH1m R132H inhibitors, 2-HG by LC-MS in neurosphere cells (TS603); type: cell-based; conditions: 2-HG in media at 48 hours
Experimental: Cellular Assay for IDH1m R132H Inhibitors.
The following describes the experimental procedures that can be used to obtain data in column 4 of Table 5.
Neurosphere cells (TS603) are grown at 37 C in 5% CO2 in Stem Cell Technologies NeuroCult™ NS-A media supplemented with 1% Primocin, 1% Normocin, 0.0002% Heparin, 20 ng/mL EGF and 10 ng/mL bFGF. Cells are harvested, pelleted and resuspended in Accumax for cell dissociation and counting. Cells are counted and then resuspended in NeuroCult media with 2× heparin, EGF and bFGF at 4 million cells/10 mL media. 100 μl of cell solution are plated in each well of a 96 well with the exception of columns 1 and 12. Columns 1 and 12 contain 200 μL PBS. Compound dose responses are set up at a 2× concentration in Neurocult media without heparin, EGF and bFGF. The final concentration of DMSO is 0.25%. DMSO only control wells are plated in row H. The plates are then placed in the incubator for 48 hours. At 48 hours, 100 μl of media is removed from each well and analyzed by LC-MS for 2-HG concentrations. The cell plate is placed back in the incubator for another 24 hours. At 72 hours post compound addition, 10 mL/plate of Promega Cell Titer Glo reagent is thawed and mixed. The cell plate is removed from the incubator and allowed to equilibrate to room temperature. Then 100 μl of Promega Cell Titer Glo reagent is added to each well of media. The cell plate is then placed on an orbital shaker for 10 minutes and then allowed to sit at room temperature for 20 minutes. The plate is then read for luminescence with an integration time of 500 ms.

[6] = IDH1 wt/R132H heterodimer, NADPH/NADP, not saturated, read-out: IDH1 wt/R132H NADPH/NADP IC50 not saturated
[7] = IDH1 wt/IDH1 R132H heterodimer, 300 μM NADP (saturated), read-out: IDH1 wt/R132H NADPH/NADP IC50 saturated

Sequence of IDH2 R140Q (P48735 40-452 R140Q): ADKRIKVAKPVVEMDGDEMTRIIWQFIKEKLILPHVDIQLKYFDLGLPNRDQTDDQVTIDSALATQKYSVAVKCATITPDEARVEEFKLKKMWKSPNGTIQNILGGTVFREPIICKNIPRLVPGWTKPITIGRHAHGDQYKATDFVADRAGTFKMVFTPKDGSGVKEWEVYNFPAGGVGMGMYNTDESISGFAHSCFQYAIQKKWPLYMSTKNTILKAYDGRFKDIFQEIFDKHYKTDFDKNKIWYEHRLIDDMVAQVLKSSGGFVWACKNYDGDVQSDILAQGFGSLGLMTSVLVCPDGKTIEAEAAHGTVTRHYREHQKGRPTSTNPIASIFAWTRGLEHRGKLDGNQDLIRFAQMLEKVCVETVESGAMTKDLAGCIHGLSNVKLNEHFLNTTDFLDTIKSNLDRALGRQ
Sequence of IDH1 wt/IDH1 R132H heterodimer (O75874 whole entry R132H): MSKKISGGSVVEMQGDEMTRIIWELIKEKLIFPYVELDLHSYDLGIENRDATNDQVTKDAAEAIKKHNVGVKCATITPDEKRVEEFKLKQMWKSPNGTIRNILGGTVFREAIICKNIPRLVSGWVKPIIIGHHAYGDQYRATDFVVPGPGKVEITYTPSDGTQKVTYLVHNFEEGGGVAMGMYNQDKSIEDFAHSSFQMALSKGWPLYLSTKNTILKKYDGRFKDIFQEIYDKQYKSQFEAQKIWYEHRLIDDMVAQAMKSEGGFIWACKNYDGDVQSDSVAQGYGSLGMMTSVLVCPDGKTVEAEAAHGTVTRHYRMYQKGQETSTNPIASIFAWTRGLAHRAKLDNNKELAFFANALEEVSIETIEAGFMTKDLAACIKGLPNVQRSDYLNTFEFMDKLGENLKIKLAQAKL
Sequence of IDH1 wt/IDH1 R132H heterodimer (O75874 whole entry, stated change not applied): as the sequence (O75874 whole entry R132H) above, with H132R counted along it
Sequence of IDH1-R132H homodimer enzyme (O75874 whole entry R132H): as the sequence (O75874 whole entry R132H) above

Compound | IC50 [1, 6] [nM] | IC50 [2] [nM] | IC50 [3] [nM] | IC50 [4] [nM] | IC50 [5] [nM] | IC50 [1, 7] [nM]
Fc1cc(F)cc(Nc2nc(NC3CC(F)(F)C3)nc(-c3cncc(Cl)n3)n2)c1 [Compound 120] | < 50 | < 50 | < 50 | < 50 | < 50 | –
FC1(F)CCC(Nc2nc(NC3CCC(F)(F)C3)nc(-c3cncc(C(F)(F)F)n3)n2)C1 (stereo not drawn) [Compound 138] | < 50 | < 50 | < 50 | < 50 | < 50 | –
FC1(F)CC[C@@H](Nc2nc(Nc3ccnc(C(F)(F)F)c3)nc(-c3cccc(C(F)(F)F)n3)n2)C1 [Compound 172] | < 50 | < 50 | < 50 | < 50 | < 50 | –
FC1(F)CCC(Nc2nc(Nc3ccnc(C(F)(F)F)c3)nc(-n3ccc(C(F)(F)F)n3)n2)C1 (stereo not drawn) [Compound 173] | < 50 | < 50 | < 50 | < 50 | < 50 | –
CC(Nc1nc(Nc2ccnc(C(F)(F)F)c2)nc(-n2ccc(C(F)(F)F)n2)n1)C(F)(F)F (stereo not drawn) [Compound 177] | < 50 | 50 to 100 | < 50 | < 50 | < 50 | –
N#CC1(c2cc(Nc3nc(NC4CCC(F)(F)C4)nc(-n4ccc(C(F)(F)F)n4)n3)ccn2)CC1 (stereo not drawn) [Compound 185] | < 50 | < 50 | < 50 | < 50 | < 50 | –
Cn1cc(-c2nc(NC3CCC(F)(F)CC3)nc(NC3CCC(F)(F)CC3)n2)c(C(F)(F)F)n1 [Compound 275] | 100 to 1000 | > 1000 | – | – | – | –
CC(F)(F)c1nc(-c2nc(NC3CCC(F)(F)CC3)nc(NC3CCC(F)(F)CC3)n2)cs1 [Compound 283] | 100 to 1000 | > 1000 | 100 to 1000 | 100 to 1000 | – | –
Oc1ccc(F)c(-c2nc(NC3CCC(F)(F)CC3)nc(NC3CCC(F)(F)CC3)n2)n1 [Compound 309] | > 1000 | > 1000 | – | – | – | –
COCCc1ccnc(-c2nc(NC3CCC(F)(F)CC3)nc(NC3CCC(F)(F)CC3)n2)n1 [Compound 315] | > 1000 | > 1000 | – | – | – | –
Cc1nc(-c2nc(NC3CC(F)(F)C3)nc(NC3CC(F)(F)C3)n2)c[nH]1 [Compound 317] | > 1000 | > 1000 | – | – | – | –
Cc1nc(-c2nc(NC3CCC(F)(F)C3)nc(NC3CCC(F)(F)C3)n2)c[nH]1 (stereo not drawn) [Compound 319] | > 1000 | > 1000 | – | – | – | –
Cc1nsc(-c2nc(NC3CCC(F)(F)CC3)nc(NC3CCC(F)(F)CC3)n2)n1 [Compound 328] | > 1000 | > 1000 | – | – | – | –
Cc1nc(-c2nc(NC3CCC(F)(F)CC3)nc(NC3CCC(F)(F)CC3)n2)c[nH]1 [Compound 332] | > 1000 | > 1000 | – | – | – | –
FC1(F)CCC(Nc2nc(NC3CCC(F)(F)CC3)nc(-c3nc(-c4ccccc4)ns3)n2)CC1 [Compound 333] | > 1000 | > 1000 | – | – | – | –
CC(F)(F)c1cc(Nc2nc(NC3CCC(F)(F)CC3)nc(-c3cccc(C(F)(F)F)n3)n2)ccn1 [Compound 361] | – | – | < 50 | < 50 | < 50 | 50 to 100
CC[C@H](Nc1nc(N[C@@H](CC)C(F)(F)F)nc(-n2ccc(C(F)(F)F)n2)n1)C(F)(F)F [Compound 363] | – | – | 50 to 100 | 50 to 100 | < 50 | < 50
C[C@@H](Nc1nc(Nc2ccnc(-c3ccc(Cl)cc3)c2)nc(-c2cccc(C(F)(F)F)n2)n1)C(F)(F)F [Compound 364] | – | – | < 50 | < 50 | < 50 | 50 to 100

Compound | IC50 [1, 6] [nM] | IC50 [2] [nM] | IC50 [3] [nM] | IC50 [4] [nM] | IC50 [5] [nM] | IC50 [1, 7] [nM]
FC(F)(F)c1cc(Nc2nc(NCC3CC3(F)F)nc(-c3cccc(C(F)(F)F)n3)n2)ccn1 (stereo not drawn) [Compound 365] | – | – | < 50 | < 50 | < 50 | 50 to 100
CC(F)(F)c1cncc(-c2nc(NC3CC(F)(F)C3)nc(NC3CC(F)(F)C3)n2)n1 [Compound 366] | – | – | < 50 | < 50 | < 50 | < 50
Fc1cc(F)cc(Nc2nc(NC3CCC(F)(F)CC3)nc(-c3cncc(C(F)(F)F)n3)n2)c1 [Compound 367] | – | – | < 50 | < 50 | < 50 | < 50
Fc1cc(F)cc(Nc2nc(N[C@@H]3CCC(F)(F)C3)nc(-c3cncc(C(F)(F)F)n3)n2)c1 [Compound 369] | – | – | < 50 | < 50 | < 50 | < 50
CC(F)(F)c1cncc(-c2nc(NC3CCC(F)(F)C3)nc(NC3CCC(F)(F)C3)n2)n1 (stereo not drawn) [Compound 370] | – | – | < 50 | < 50 | < 50 | < 50
C[C@@H](Nc1nc(Nc2ccnc(-c3ccc(F)cc3)c2)nc(-c2cccc(C(F)(F)F)n2)n1)C(F)(F)F [Compound 371] | – | – | < 50 | < 50 | < 50 | < 50
CC(F)(F)c1cccc(-c2nc(Nc3ccnc(C4(C#N)CC4)c3)nc(NC3CC(F)(F)C3)n2)n1 [Compound 372] | – | – | < 50 | < 50 | < 50 | < 50
N#CC1(c2cc(Nc3nc(N[C@H]4CCC(F)(F)C4)nc(-c4cncc(C(F)(F)F)n4)n3)ccn2)CC1 [Compound 373] | – | – | < 50 | < 50 | < 50 | < 50
CC(F)(F)c1cncc(-c2nc(NC3CCC(F)(F)CC3)nc(NC3CCC(F)(F)CC3)n2)n1 [Compound 374] | – | – | < 50 | < 50 | < 50 | 50 to 100
N#CC1(c2cc(Nc3nc(N[C@@H]4CCC(F)(F)C4)nc(-c4nccc(C(F)(F)F)n4)n3)ccn2)CC1 [Compound 375] | – | – | < 50 | < 50 | < 50 | 100 to 1000
FC(F)(F)c1cc(Nc2nc(NCC3CC3)nc(-c3nc(C(F)(F)F)cs3)n2)ccn1 [Compound 379] | – | – | < 50 | < 50 | < 50 | 50 to 100
FC1(F)CC2(CC(Nc3nc(Nc4ccnc(C(F)(F)F)c4)nc(-c4cncc(C(F)(F)F)n4)n3)C2)C1 [Compound 380] | – | – | < 50 | < 50 | < 50 | 100 to 1000
C[C@@H](Nc1nc(Nc2ccnc(-c3ccc(C#N)cc3)c2)nc(-c2cccc(C(F)(F)F)n2)n1)C(F)(F)F [Compound 383] | – | – | < 50 | < 50 | < 50 | 100 to 1000
FC(F)(F)c1cc(Nc2nc(NCC3CC3)nc(-c3cncc(C(F)(F)F)n3)n2)ccn1 [Compound 387] | – | – | < 50 | < 50 | < 50 | 100 to 1000
FC1(F)CCC(Nc2nc(NC3CCC(F)(F)C3)nc(-c3cccc(C(F)(F)F)n3)n2)CC1 (stereo not drawn) [Compound 395] | – | – | < 50 | < 50 | < 50 | < 50
FC1(F)CC[C@@H](Nc2nc(N[C@H]3CCC(F)(F)C3)nc(-c3cncc(C(F)(F)F)n3)n2)C1 [Compound 399] | – | – | < 50 | < 50 | < 50 | < 50
FC1(F)CC[C@H](Nc2nc(N[C@H]3CCC(F)(F)C3)nc(-c3cncc(C(F)(F)F)n3)n2)C1 [Compound 406] | – | – | < 50 | < 50 | < 50 | < 50
FC1(F)CCC(Nc2cc(NC3CCC(F)(F)CC3)nc(-c3cncc(C(F)(F)F)n3)n2)CC1 [Compound 421] | 100 to 1000 | 100 to 1000 | – | – | – | –
